26 compounds from ChEMBL document CHEMBL1126162, “A steric and electrostatic comparison of three models for the agonist/antagonist binding site on the adenosine A1 receptor” (J Med Chem, 1992) can be followed below.

SMILES strings stand for the structures. Values joined by “and” are separate entries in the source; they are usually repeats but may differ in a detail not shown here. Equal values may be shown once.

This experiment deals with T1, Adenosine receptor A1 (Rattus norvegicus, UniProt P25099).
T1 sequence (P25099 whole entry): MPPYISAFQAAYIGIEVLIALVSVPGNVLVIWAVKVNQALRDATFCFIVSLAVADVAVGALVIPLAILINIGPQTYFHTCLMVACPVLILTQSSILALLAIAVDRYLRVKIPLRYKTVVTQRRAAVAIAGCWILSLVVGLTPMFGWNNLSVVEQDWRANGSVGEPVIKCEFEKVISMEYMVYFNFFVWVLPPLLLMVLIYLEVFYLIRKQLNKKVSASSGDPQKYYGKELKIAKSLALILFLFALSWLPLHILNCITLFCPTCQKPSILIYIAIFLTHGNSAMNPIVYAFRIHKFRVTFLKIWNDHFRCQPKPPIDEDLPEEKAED
As to the kind of experiment: Evaluated for binding affinity against Adenosine A1 receptor.

In general, Ki refers to the equilibrium dissociation constant of an inhibitor or competing ligand from its target. On to `Cn1c(=O)c2nc(-c3cccc(F)c3)[nH]c2n(C)c1=O`, for which the affinity, expressed as Ki, was 2.4 nM.
The compound `Cn1c(=O)c2[nH]c(-c3ccc(F)cc3)nc2n(C)c1=O` gave a Ki of 1.82 nM.
A word on the IC50: it is the midpoint of a concentration-inhibition curve. Low values mean greater potency, high ones weaker potency. `OC[C@H]1OC(n2cnc3c(Nc4ccc(F)cc4)ncnc32)[C@H](O)[C@@H]1O` (stereo partly specified): the IC50 is 2 nM.
For `COc1ccccc1-c1nc2c([nH]1)c(=O)n(C)c(=O)n2C`, the affinity, expressed as Ki, was 191 nM. This counts as sub-micromolar.
On to `OC[C@H]1O[C@@H](n2cnc3c(NC4CC4)ncnc32)[C@H](O)[C@@H]1O`, for which the IC50 is 2.09 nM.
`CCCn1c(=O)c2nc(Cc3ccccc3)[nH]c2n(CCC)c1=O` showed a Ki of 891 nM.
On to `OC[C@H]1OC(n2cnc3c(NCC4CCCCC4)ncnc32)[C@H](O)[C@@H]1O` (stereo partly specified), for which the IC50 was 39.8 nM.
For the compound `OC[C@H]1OC(n2cnc3c(Nc4cccc(F)c4)ncnc32)[C@H](O)[C@@H]1O` (stereo partly specified), the IC50 is 1 nM.
In turn, `CCCn1c(=O)c2[nH]c(-c3ccccc3)nc2n(CCC)c1=O` gave a Ki of 11 nM. This counts as double-digit nanomolar.
`Cc1ccccc1Nc1ncnc2c1ncn2C1O[C@H](CO)[C@@H](O)[C@H]1O` (stereo partly specified) had an IC50 of 8.91 nM.
The same measure, in the same setting: then `CCCc1ccccc1Nc1ncnc2c1ncn2C1O[C@H](CO)[C@@H](O)[C@H]1O` (stereo partly specified), with 1.2 nM.
The same measure, in the same setting: next, `OC[C@H]1O[C@@H](n2cnc3c(Nc4ccccc4)ncnc32)[C@H](O)[C@@H]1O` [N6-PHENYLADENOSINE]: 3.31 nM.
On to `OC[C@H]1OC(n2cnc3c(Nc4ccc(Cl)cc4)ncnc32)[C@H](O)[C@@H]1O` (stereo partly specified), for which the IC50 is 2.19 nM.
The same measure, in the same setting: then `OC[C@H]1OC(n2cnc3c(Nc4ccccc4F)ncnc32)[C@H](O)[C@@H]1O` (stereo partly specified), with 3.98 nM.
Same read-out and setting: next, `Cc1cccc(Nc2ncnc3c2ncn3C2O[C@H](CO)[C@@H](O)[C@H]2O)c1` (stereo partly specified): 26.9 nM; `CCCc1ccccc1Nc1ncnc2c1ncn2C1OC(CO)[C@@H](O)[C@H]1O` (single isomer, unassigned): 52.5 nM.
The compound `Cn1c(=O)c2[nH]c(-c3ccc(Cl)cc3)nc2n(C)c1=O` had a Ki of 0.646 nM.
As for `COc1ccc(Nc2ncnc3c2ncn3[C@@H]2O[C@H](CO)[C@@H](O)[C@H]2O)cc1`, the IC50 was 8.91 nM and 4.57 nM.
Compound `Cc1ccc(-c2nc3c([nH]2)c(=O)n(C)c(=O)n3C)cc1` had a Ki of 0.513 nM.
Compound `Cc1ccc(Nc2ncnc3c2ncn3C2O[C@H](CO)[C@@H](O)[C@H]2O)cc1` (stereo partly specified) gave an IC50 of 4.9 nM.
As for `CCCn1c(=O)c2[nH]c(CC3CCCCC3)nc2n(CCC)c1=O`, the affinity corresponds to a Ki of 38.9 nM.
Still for that read-out and setting: then `CCCn1c(=O)c2nc(-c3ccc(OC)cc3)[nH]c2n(CCC)c1=O`, with 4.57 nM.
`COc1ccccc1Nc1ncnc2c1ncn2C1O[C@H](CO)[C@@H](O)[C@H]1O` (stereo partly specified) gave an IC50 of 85.1 nM.
For `COc1cccc(Nc2ncnc3c2ncn3C2O[C@H](CO)[C@@H](O)[C@H]2O)c1` (stereo partly specified), the IC50 was 46.8 nM.
Turning to `Cn1c(=O)c2[nH]c(-c3ccccc3F)nc2n(C)c1=O`, the affinity, expressed as Ki, was 6.76 nM.
Same read-out and setting: then `Cc1cccc(-c2nc3c([nH]2)c(=O)n(C)c(=O)n3C)c1`, with 5.37 nM.
